Measurements taken from US5776899A, “Polypeptide and anti-HIV agent prepared therefrom” (Seikagaku Corporation, priority 1993, dated 1998).
Values after ≈ are worked out from the molar mass of the structure shown. “Also recorded” adds a separate entry of the source. Positions of bridges follow the written chain, without caps; N, C: chain ends. Non-standard residues stand in square brackets, D forms with d. Residues, ends and D or L forms follow the SMILES beside them. *: point of attachment. FITC = O=C1OC2(c3ccc(O)cc3Oc3cc(O)ccc32)c2ccc(NC(=S)*)cc21; Myristoyl = CCCCCCCCCCCCCC(=O)*; dOrn = NCCC[C@@H](N)C(=O)O; GABA = NCCCC(=O)O

How the values were obtained:
[1] = test system: human immunodeficiency virus (HIV); test: Antiviral activity against HIV in HIV-infected MT-4 cells (MTT method); type: cell-based; conditions: for SI: rough ratio CC50/EC50
Protocol: (§1) HIV-infected MT-4 cells (2.5×10^4 cells/well, multiplicity of infection (MOI): 0.001) immediately after infection were added together with the test substance with various changes of the concentration to a 96-well microtitre plate. After incubation at 37° C. for 5 days in a CO2 incubator, the number of survivor cells was measured by the MTT method [Pauwels et al.; J. Virol. […] On the other hand, in order to know the cytotoxicity of the test substance on the MT-4 cells, virus-non-infected cells were incubated, likewise as above, together with the test compound with various changes of the concentration. […] Further, the rough ratio of CC50 to EC50, (CC50 /EC50) is expressed as an effective ratio (SI).

MT-4 cells = test: Cytotoxicity on virus-non-infected MT-4 cells (MTT method); type: cell-based
Protocol: as §1

[2] = Table 5, method of Example 2, HIV-infected MT-4 cells
[3] = Table 5, method of Example 2, virus-non-infected MT-4 cells
[4] = Table 4, HIV-infected MT-4 cells, MOI 0.001, 5 days
[5] = Table 4, virus-non-infected MT-4 cells, 5 days

| Structure (SMILES) | SI (CC50/EC50) ([1]; Table 5) | EC50 [1, 2] | CC50 (MT-4 cells; [3]) | EC50 [1, 4] | SI ([1]; Table 4) | anti-HIV activity compared with reference compound (in words) ([1]; text comment on the anti-HIV results) | CC50 (MT-4 cells; [5]) | cytotoxicity compared with reference compound (in words) (MT-4 cells; text comment on Table 4) |
| --- | --- | --- | --- | --- | --- | --- | --- | --- |
| N=C(N)NCCC[C@H](NC(=O)[C@@H]1CSSC[C@H](NC(=O)[C@H](Cc2c[nH]c3ccccc23)NC(=O)[C@H](CCCNC(=N)N)NC(=O)[C@@H](N)CCCNC(=N)N)C(=O)N[C@@H](Cc2ccc(O)cc2)C(=O)N[C@@H](CCCNC(=N)N)C(=O)N[C@@H](CCCCN)C(=O)N[C@H](CCCCNC(=O)CCCN)C(=O)N2CCC[C@H]2C(=O)N[C@@H](Cc2ccc(O)cc2)C(=O)N[C@@H](CCCNC(=N)N)C(=O)N[C@@H](CCCCN)C(=O)N1)C(N)=O (H-RRWCYRK[dK](GABA)PYRKCR-NH2; disulfide 4-13) | 11095 | 0.0165 µg/mL (≈ 0.00793 µM) | 138.07 µg/mL (≈ 66.3 µM) | – | – | – | – | – |
| N=C(N)NCCC[C@H](NC(=O)[C@@H]1CSSC[C@H](NC(=O)[C@H](Cc2c[nH]c3ccccc23)NC(=O)[C@H](CCCNC(=N)N)NC(=O)[C@@H](N)CCCNC(=N)N)C(=O)N[C@@H](Cc2ccc(O)cc2)C(=O)N[C@@H](CCCNC(=N)N)C(=O)N[C@@H](CCCCN)C(=O)N[C@H](CCCCNC(=O)CN)C(=O)N2CCC[C@H]2C(=O)N[C@@H](Cc2ccc(O)cc2)C(=O)N[C@@H](CCCNC(=N)N)C(=O)N[C@@H](CCCCN)C(=O)N1)C(N)=O (H-RRWCYRK[dK](Gly)PYRKCR-NH2; disulfide 4-13) | – | 0.03 µg/mL (≈ 0.0146 µM) | 44.26 µg/mL (≈ 21.6 µM) | – | – | – | – | – |
| N=C(N)NCCC[C@H](NC(=O)[C@@H]1CSSC[C@H](NC(=O)[C@H](Cc2c[nH]c3ccccc23)NC(=O)[C@H](CCCNC(=N)N)NC(=O)[C@@H](N)CCCNC(=N)N)C(=O)N[C@@H](Cc2ccc(O)cc2)C(=O)N[C@@H](CCCNC(=N)N)C(=O)N[C@@H](CCCCN)C(=O)N[C@H](CCCCN)C(=O)N2CCC[C@H]2C(=O)N[C@@H](Cc2ccc(O)cc2)C(=O)N[C@@H](CCCNC(=N)N)C(=O)N[C@@H](CCCCN)C(=O)N1)C(N)=O [Polypeptide (1), Arg--Arg--Trp--Cys--Tyr--Arg--Lys--DLys--Pro--Tyr--Arg--Lys--Cys--Arg--NH2] (H-RRWCYRK[dK]PYRKCR-NH2; disulfide 4-13) | 3352 | 0.0195 µg/mL (≈ 0.00977 µM) | 65.37 µg/mL (≈ 32.7 µM) | 0.0034 µg/mL (≈ 0.0017 µM) | 14,647 | one-third the concentration of T-22; also recorded: slightly higher | 49.8 µg/mL (≈ 24.9 µM) | the same cytotoxicity as that of T-22; also recorded: extremely low cytotoxicity |
| N=C(N)NCCC[C@H](NC(=O)[C@@H]1CSSC[C@H](NC(=O)[C@H](Cc2c[nH]c3ccccc23)NC(=O)[C@H](CCCNC(=N)N)NC(=O)[C@@H](N)CCCNC(=N)N)C(=O)N[C@@H](Cc2ccc(O)cc2)C(=O)N[C@@H](CCCNC(=N)N)C(=O)N[C@@H](CCCCN)C(=O)N[C@@H](CCCCN)C(=O)NCC(=O)N[C@@H](Cc2ccc(O)cc2)C(=O)N[C@@H](CCCNC(=N)N)C(=O)N[C@@H](CCCCN)C(=O)N1)C(N)=O [Polypeptide (3), Arg--Arg --Trp--Cys--Tyr--Arg--Lys --Lys--Gly --Tyr--Arg--Lys--Cys--Arg--NH2] (H-RRWCYRKKGYRKCR-NH2; disulfide 4-13) | 3477 | 0.057 µg/mL (≈ 0.0291 µM) | 198.18 µg/mL (≈ 101 µM) | – | – | – | – | – |
| N=C(N)NCCC[C@H](NC(=O)[C@@H]1CSSC[C@H](NC(=O)[C@H](Cc2c[nH]c3ccccc23)NC(=O)[C@H](CCCNC(=N)N)NC(=O)[C@@H](N)CCCNC(=N)N)C(=O)N[C@@H](Cc2ccc(O)cc2)C(=O)N[C@@H](CCCNC(=N)N)C(=O)N[C@@H](CCCCN)C(=O)N2CCC[C@H]2C(=O)N[C@H](CCCCN)C(=O)N[C@@H](Cc2ccc(O)cc2)C(=O)N[C@@H](CCCNC(=N)N)C(=O)N[C@@H](CCCCN)C(=O)N1)C(N)=O [Polypeptide (5), Arg--Arg --Trp--Cys--Tyr--Arg--Lys --Pro--DLys --Tyr--Arg--Lys--Cys--Arg--NH2] (H-RRWCYRKP[dK]YRKCR-NH2; disulfide 4-13) | 1321 | 0.076 µg/mL (≈ 0.0381 µM) | 101.20 µg/mL (≈ 50.7 µM) | – | – | – | – | – |
| N=C(N)NCCC[C@H](NC(=O)[C@@H]1CSSC[C@H](NC(=O)[C@H](Cc2c[nH]c3ccccc23)NC(=O)[C@H](CCCNC(=N)N)NC(=O)[C@@H](N)CCCNC(=N)N)C(=O)N[C@@H](Cc2ccc(O)cc2)C(=O)N[C@@H](CCCNC(=N)N)C(=O)N[C@@H](CCCCN)C(=O)N[C@H](CCCN)C(=O)N2CCC[C@H]2C(=O)N[C@@H](Cc2ccc(O)cc2)C(=O)N[C@@H](CCCNC(=N)N)C(=O)N[C@@H](CCCCN)C(=O)N1)C(N)=O [Polypeptide (6), Arg--Arg --Trp--Cys--Tyr--Arg--Lys --DOrn--Pro --Tyr--Arg--Lys--Cys--Arg--NH2] (H-RRWCYRK[dOrn]PYRKCR-NH2; disulfide 4-13) | 2728 | – | 55.93 µg/mL (≈ 28.2 µM) | – | – | – | – | – |
| CC(=O)N[C@@H](CCCNC(=N)N)C(=O)N[C@@H](CCCNC(=N)N)C(=O)N[C@@H](Cc1c[nH]c2ccccc12)C(=O)N[C@H]1CSSC[C@@H](C(=O)N[C@@H](CCCNC(=N)N)C(N)=O)NC(=O)[C@H](CCCCN)NC(=O)[C@H](CCCNC(=N)N)NC(=O)[C@H](Cc2ccc(O)cc2)NC(=O)[C@@H]2CCCN2C(=O)[C@@H](CCCCN)NC(=O)[C@H](CCCCN)NC(=O)[C@H](CCCNC(=N)N)NC(=O)[C@H](Cc2ccc(O)cc2)NC1=O [Polypeptide (14), Ac--Arg--Arg --Trp--Cys--Tyr--Arg--Lys --DLys--Pro --Tyr--Arg--Lys--Cys--Arg--NH2] (Ac-RRWCYRK[dK]PYRKCR-NH2; disulfide 4-13) | 3256 | 0.024 µg/mL (≈ 0.0118 µM) | 78.14 µg/mL (≈ 38.3 µM) | – | – | – | – | – |
| CCCCCCCCCCCCCC(=O)N[C@@H](CCCNC(=N)N)C(=O)N[C@@H](CCCNC(=N)N)C(=O)N[C@@H](Cc1c[nH]c2ccccc12)C(=O)N[C@H]1CSSC[C@@H](C(=O)N[C@@H](CCCNC(=N)N)C(N)=O)NC(=O)[C@H](CCCCN)NC(=O)[C@H](CCCNC(=N)N)NC(=O)[C@H](Cc2ccc(O)cc2)NC(=O)[C@@H]2CCCN2C(=O)[C@@H](CCCCN)NC(=O)[C@H](CCCCN)NC(=O)[C@H](CCCNC(=N)N)NC(=O)[C@H](Cc2ccc(O)cc2)NC1=O [Polypeptide (17), Myr--Arg--Arg --Trp--Cys--Tyr--Arg--Lys --DLys--Pro --Tyr--Arg--Lys--Cys--Arg--NH2] (Myristoyl-RRWCYRK[dK]PYRKCR-NH2; disulfide 4-13) | 1838 | 0.055 µg/mL (≈ 0.0249 µM) | 106.60 µg/mL (≈ 48.3 µM) | – | – | – | – | – |
| N=C(N)NCCC[C@H](NC(=O)[C@@H]1CSSC[C@H](NC(=O)[C@H](Cc2c[nH]c3ccccc23)NC(=O)[C@H](CCCNC(=N)N)NC(=O)[C@H](CCCNC(=N)N)NC(=S)Nc2ccc3c(c2)C(=O)OC32c3ccc(O)cc3Oc3cc(O)ccc32)C(=O)N[C@@H](Cc2ccc(O)cc2)C(=O)N[C@@H](CCCNC(=N)N)C(=O)N[C@@H](CCCCN)C(=O)N[C@H](CCCCN)C(=O)N2CCC[C@H]2C(=O)N[C@@H](Cc2ccc(O)cc2)C(=O)N[C@@H](CCCNC(=N)N)C(=O)N[C@@H](CCCCN)C(=O)N1)C(N)=O [Polypeptide (19), FTC--Arg--Arg --Trp--Cys--Tyr--Arg--Lys --DLys--Pro --Tyr--Arg--Lys--Cys--Arg--NH2] ({FITC}-RRWCYRK[dK]PYRKCR-NH2; disulfide 4-13) | 39285 | – | 38.47 µg/mL (≈ 16.1 µM) | – | – | – | – | – |
| N=C(N)NCCC[C@H](NC(=O)[C@@H]1CSSC[C@H](NC(=O)[C@H](Cc2c[nH]c3ccccc23)NC(=O)[C@H](CCCNC(=N)N)NC(=O)[C@@H](N)CCCNC(=N)N)C(=O)N[C@@H](Cc2ccc(O)cc2)C(=O)N[C@@H](CCCNC(=N)N)C(=O)N[C@@H](CCCCN)C(=O)N[C@H]2CSSC[C@H](NC(=O)[C@H](Cc3ccc(O)cc3)NC(=O)CNC(=O)[C@H](CCCCN)NC(=O)[C@H](Cc3ccc(O)cc3)NC2=O)C(=O)N[C@@H](Cc2ccc(O)cc2)C(=O)N[C@@H](CCCNC(=N)N)C(=O)N[C@@H](CCCCN)C(=O)N1)C(N)=O [Polypeptide T-22, reference compound] (H-RRWCYRKCYKGYCYRKCR-NH2; disulfide 4-17, 8-13 (inferred); N-terminus assumed) | – | 0.017 µg/mL (≈ 0.00684 µM) | 49.4 µg/mL (≈ 19.9 µM) | 0.0099 µg/mL (≈ 0.00398 µM) | 5,465 | – | 54.1 µg/mL (≈ 21.8 µM) | – |
